Like-named read-outs stand apart in the source and are kept apart here.
Assays:
[1] = system: Magnaporthe oryzae; assay: microbe, parasite or virus in culture; assay type: cell-based; settings: for Average diameter of fungal growth: Cu—Zn#12 0%, plug subtracted
[2] = system: Aspergillus niger; assay: Fungal growth inhibition assay (hyphal growth diameter on PDA); assay type: cell-based; settings: for IC50: Aspergillus niger
[3] = system: Xanthomonas oryzae (strain Gx0372); assay: microbe, parasite or virus in culture; assay type: cell-based; settings: Xanthomonas oryzae, 24 h
[4] = system: Pseudomonas syringae (pv. tomato DC3000); assay: Bacterial microplate culture (resazurin MIC); assay type: cell-based; settings: Pseudomonas syringae; 24 hours at 28° C.; highest concentration 400 mg/L (1% of stock solutions); read-out: MIC
[5] = system: Mycosphaerella graminicola; assay: Fungal growth inhibition assay (hyphal growth diameter on PDA); assay type: cell-based
Description: The fungal strains used in these studies are described in TABLE 2. The strains were routinely cultured in 9 centimeter Petri dishes containing 10 milliliters of potato dextrose agar (PDA) at room temperature (22° C.) apart from U. maydis (28° C.).
(§1) To assess the effects of compositions on fungal growth, 10 microliters of the test compositions diluted in sterile distilled water were placed in the wells of a 12-well tissue culture plate and 1 milliliter of liquid PDA was added by pipette to each well. Where multiple samples were added to each well, the 10 microliter drops were kept separate until they were mixed by the addition of hot liquid PDA and the plate was then agitated to evenly distribute the test composition(s) evenly through the agar (distilled water was used as vehicle control) and then the agar was allowed to set. […] To assess the effects of compositions on fungal growth in all experiments, the diameter of the hyphal growth was measured twice at a 90° angle using a ruler and the average diameter in millimeters was calculated. If no fungal growth could be detected by eye, the cultures were observed by phase microscopy (40×) to confirm that there was no growth (NG).

[6] = system: Rhizoctonia solani; assay: as above; assay type: cell-based; settings: for IC50: Rhizoctonia solani
[7] = system: Ustilago maydis; assay: as above; assay type: cell-based; settings: for IC50: Mycosarcoma maydis
[8] = system: Ralstonia solanacearum (strain PSS4 from tomato); assay: microbe, parasite or virus in culture; assay type: cell-based; settings: Ralstonia solanacearum, 24 h
[9] = system: Trichophyton rubrum; assay: Fungal growth inhibition assay with Trichophyton rubrum; assay type: cell-based
Description: as §1, with “set. For most strains (see TABLE 2), plugs of agar containing fungal hyphae (2 to 3 millimeters in diameter) from the edge of an established fungal culture were carefully cut out using a scalpel and inserted into holes cut in the centre of the agar in each well of the 12-well plate. With B. cinerea and U. maydis, mature cultures were washed with 3 ml of sterile distilled water and the spore suspensions obtained were adjusted to O.D. (at 600 nanometers) of 1.0 and 1.5, respectively. A small hole (˜1 millimeter) was made in the center of the PDA in each well with a yellow pipette tip and 1.5 microliters of spore suspension was carefully pipetted into the hole.” for “set.”
A clinical isolate of T. rubrum (strain 7107996; Phylum: Acomycota) was kindly provided by Dr. Richard Barton, Leeds University, UK. The growth assays with T. rubrum were as described in EXAMPLE 1, except this strain was cultured at 33° C. on PDA for 6 or 7 days when growth was assessed. T. rubrum cultures were maintained on Sabouraud dextrose agar at 33° C.
FIG. 8 is a graph depicting the effects of selected compositions and compounds on the growth of Trichophyton rubrum. The culture period was 7 days. Growth in the control cultures was 20±0 millimeters (mean±SD for 2 experiments).

[10] = system: Alternaria alternata; assay: Fungal growth inhibition assay (hyphal growth diameter on PDA); assay type: cell-based; settings: for IC50: Alternaria alternata
[11] = system: plant pathogenic fungi; assay: organism not typed; assay type: cell-based; settings: for fungal growth with KS: 1000 milligrams/liter KS
[12] = system: 4 plant pathogenic bacterial strains; settings: KS at ≧10,000 milligrams/liter, any strain
[13] = system: Botrytis cinerea; assay: Fungal growth inhibition assay (hyphal growth diameter on PDA); assay type: cell-based; settings: for IC50: Botrytis cinerea
[14] = system: Xanthomonas campestris (strain Race 5 from brassica); assay: Bacterial microplate culture (resazurin MIC); assay type: cell-based; settings: Xanthomonas campestris; 24 hours at 28° C.; highest concentration 400 mg/L (1% of stock solutions); read-out: MIC
[15] = system: Fusarium graminearum; assay: microbe, parasite or virus in culture; assay type: cell-based; settings: for IC50: Fusarium graminearum
[16] = read-out: Potassium sorbate IC50, mean ± SD, PDA
[17] = read-out: Potassium sorbate IC50, single experiments, PDA

C/C=C/C=C/C(=O)[O-].[K+] [Potassium sorbate]
Average diameter of fungal growth ([1]; KS 10 mg/L, PDA): 17 mm | Average diameter of fungal growth ([1]; KS 30 mg/L, PDA): 17 mm | Average diameter of fungal growth ([1]; KS 100 mg/L, PDA): 15 mm | Average diameter of fungal growth ([1]; KS 150 mg/L, PDA): 14 mm | Average diameter of fungal growth ([1]; KS 300 mg/L, PDA): 9 mm | effect on fungal growth alone ([1]; KS 10 milligrams/liter alone): no effect | Minimum KS concentration required for NG ([1]; PDA, NG = no fungal growth): 1000 mg/L | IC50 ([1]; Pyricularia oryzae, read-out: Potassium sorbate IC50, mean ± SD, PDA): 140 µg/mL | KS concentration that completely inhibited growth ([1]; in the presence of […] Cu—Zn#12): 30 milligrams/liter | times lower KS concentration for complete inhibition ([1]; with […] Cu—Zn#12 versus KS alone): 33 times | IC50 [2, 16]: 91 µg/mL | IC50 [2, 17]: 82 µg/mL | Potassium sorbate IC50, single experiments ([2]; PDA): 100 mg/L | Minimum KS concentration required for NG ([2]; PDA, NG = no fungal growth): 300 mg/L | MIC [3]: > 10000 µg/mL | MIC [4]: > 10000 µg/mL | Minimum KS concentration required for NG ([5]; NG = no fungal growth): 300 mg/L | IC50 ([5]; Zymoseptoria tritici, read-out: Potassium sorbate IC50, single experiment): 150 µg/mL | Potassium sorbate IC50, single experiments ([6]; PDA): 100 mg/L | Minimum KS concentration required for NG ([6]; PDA, NG = no fungal growth): 1000 mg/L | IC50 [6, 16]: 91 µg/mL | IC50 [6, 17]: 73 µg/mL | IC50 ([7]; read-out: KS IC50, PDA): 0.077 µg/mL | IC50 [7, 16]: 77 µg/mL | IC50 [7, 17]: 74 µg/mL | Potassium sorbate IC50, single experiments ([7]; PDA): 80 mg/L | Minimum KS concentration required for NG ([7]; PDA, NG = no fungal growth): 300 mg/L | MIC [8]: > 10000 µg/mL | inhibition of fungal growth ([9]; KS 100 milligrams/liter on its own): 6% | KS concentration required for complete inhibition of fungal growth ([9]; KS alone (FIG. 9)): 300 milligrams/liter | T. rubrum IC50 values: % of stock solution ([9]; PDA, 33° C., 7 days): 0.017 % of stock solution | IC50 ([9]; Trichophyton rubrum, 168 h, PDA, 33° C., 7 days, Cu—Zn#12: 50% each of elemental copper and zinc, read-out: T. rubrum IC50 values: Concentration): 17 µg/mL | IC50 [10, 16]: 190 µg/mL | IC50 [10, 17]: 180 µg/mL | Potassium sorbate IC50, single experiments ([10]; PDA): 200 mg/L | Minimum KS concentration required for NG ([10]; PDA, NG = no fungal growth): 300 mg/L | number of fungal strains whose growth was completely inhibited ([11]; 300 milligrams/liter KS, eight strains tested): 4 strains | fungal growth with KS ([11]; all eight fungal strains): completely inhibited | fungal growth with KS ([11]; five fungal strains of FIG. 2): no growth | IC50 ([11]; read-out: KS IC50 range on plant pathogenic fungi): 77 to 190 µg/mL | effect on bacterial growth [12]: no effect | IC50 [13, 16]: 175 µg/mL | IC50 [13, 17]: 200 µg/mL | Potassium sorbate IC50, single experiments ([13]; PDA): 150 mg/L | Minimum KS concentration required for NG ([13]; PDA, NG = no fungal growth): 1000 mg/L | MIC [14]: > 10000 µg/mL | IC50 [15, 16]: 185 µg/mL | IC50 [15, 17]: 150 µg/mL | Potassium sorbate IC50, single experiments ([15]; PDA): 220 mg/L | Minimum KS concentration required for NG ([15]; PDA, NG = no fungal growth): 1000 mg/L

— patent publication US20150342195A1, “ANTI-MICROBIAL COMPOSITIONS, PREPARATIONS, METHODS, AND USES” (MYCO SCIENCES LIMITED, priority 2014, published 2015)
